13 compounds from ChEMBL document CHEMBL1201862, “PubChem BioAssay data set” (2004) can be followed below.

Active and inactive are the calls of the source.

Test [1] is described as follows: Trypanosoma cruzi growth suppression in host cells – NIH3T3 host cells, beta-gal luminescence, confirmation (AID 2044).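 Note: intracellular parasites grown in NIH/3T3 mouse fibroblasts as host cells; luminescent beta-galactosidase reporter signal from transgenic T. cruzi replicating inside host cells; inhibitors lower the luminescence signal.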 Type of test: functional, cell-based.
A short description of test [2]: microbe, parasite or virus in culture. Type of test: functional. The settings on record: Mycobacterium tuberculosis.
The test system of the next test is INS1. The experiment in a line: INS-1E survival protection against cytokine death – cell-based, luminescence, retest, dose response (AID 449756).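 Note: cell death triggered by IL-1 beta plus TNF-alpha plus IFN-gamma mixture; protective hits raise ATP signal compared with cytokine alone wells.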 Type of test: functional. The following applies: Rattus norvegicus.
Test [3] is described as follows: NIH3T3 cell viability loss – ATP luminescence, mouse fibroblasts, counter-screen, dose response (AID 2010).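 Note: cells exposed to compound for about 90 hours before reading.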 Type of test: functional, cell-based.
The target in test [4] is Protein-tyrosine kinase 2-beta (Homo sapiens, UniProt Q14289).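 Note: potency of inhibitors of PYK2 kinase phosphorylation of poly-GT substrate.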
The target of test [5] is Luciferin 4-monooxygenase (Photinus pyralis, UniProt P08659). The experiment in a line: inhibition of purified Photinus pyralis luciferase – biochemical, luminescence, dose response (AID 1891).
A short description of test [6]: Luminescence Cell-Based Dose Confirmation HTS to Identify Inhibitors of Platelet Dense Granule Release. [Related pubchem assays: 1663 (Primary HTS), 1678 (Summary of Project)]. Type of test: functional.
Another test deals with H4. As to the kind of experiment: Luminescence Cell-Based Dose Response HTS to Identify Activators of 5'UTR Stem-Loop Driven Prion Protein mRNA Translation in H4 Neuroglioblastoma Cells. [Related pubchem assays: 1829 (Project Summary), 1814 (Primary HTS)]. Type of test: functional. The settings on record: Homo sapiens.
Test [7] can be described thus: Luminescence Cell-Based Dose Response HTS to Identify Activators of Luciferase Translation or Activity in H4 […] Cells. [Related pubchem assays: 1829 (Project Summary), 1814 (Primary HTS)]. Type of test: functional.
The nature of test [8]: Luminescence Cell-Based Dose Confirmation to Identify Activators of 5'UTR Stem-Loop Driven Alpha-Synuclein mRNA Translation in H4 Neuroglioblastoma Cells. [Related pubchem assays: 1829 (Project Summary), 1814 (Primary HTS)]. Type of test: functional.
Test [9] is described as follows: Luminescence Cell-Based Dose Response to Identify Activators of Luciferase Translation or Activity in H4-C Neuroglioblastoma Cells. [Related pubchem assays: 1829 (Project Summary), 1814 (Primary HTS)]. Type of test: functional.
A short description of test [10]: Luminescence Cell-Based Dose Response to Identify Activators of 5'UTR Stem-Loop Driven Prion Protein mRNA Translation in H4-C Neuroglioblastoma Cells. [Related pubchem assays: 1829 (Project Summary), 1814 (Primary HTS)]. Type of test: functional.
Test [11] in a line: Luminescence Cell-Based Dose Confirmation HTS to Identify Activators of 5'UTR Stem-Loop Driven Alpha-Synuclein mRNA Translation in H4 Neuroglioblastoma Cells. [Related pubchem assays: 1829 (Project Summary), 1814 (Primary HTS)]. Type of test: functional.
Test [12] deals with Sphingosine 1-phosphate receptor 2 (Homo sapiens, UniProt O95136). As to the kind of experiment: Dose Response Cell Based Assay for Antagonists of the S1P2 Receptor. [Related pubchem assays: 856, 736 ]. Type of test: functional.
Chain of Sphingosine 1-phosphate receptor 2 (O95136 whole entry): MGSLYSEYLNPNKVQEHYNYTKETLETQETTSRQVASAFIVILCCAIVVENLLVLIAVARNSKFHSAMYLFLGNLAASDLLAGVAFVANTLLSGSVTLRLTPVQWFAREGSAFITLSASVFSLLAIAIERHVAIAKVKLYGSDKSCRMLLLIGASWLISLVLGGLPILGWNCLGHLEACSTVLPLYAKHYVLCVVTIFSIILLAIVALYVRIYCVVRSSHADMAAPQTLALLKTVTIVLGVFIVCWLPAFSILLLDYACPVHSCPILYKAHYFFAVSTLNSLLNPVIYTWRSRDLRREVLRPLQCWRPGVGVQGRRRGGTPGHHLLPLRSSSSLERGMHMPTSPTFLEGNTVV
Test [13] concerns the target Peroxisome proliferator-activated receptor gamma/Nuclear receptor coactivator 2 (Homo sapiens, UniProt P37231). Type of test: functional.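 Note: agonist potency for raising coactivator recruitment to the receptor.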
Test [14] has as its target Peroxisome proliferator-activated receptor gamma/Nuclear receptor coactivator 1 (Homo sapiens, UniProt P37231). Type of test: functional.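 Note: agonist potency as compounds enhance coactivator SRC-1 recruitment to PPARgamma.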
In test [15] the target is Peroxisome proliferator-activated receptor gamma/Nuclear receptor coactivator 3 (Homo sapiens, UniProt P37231). Type of test: functional.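 Note: agonist potency for raising coactivator recruitment to the receptor.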
The nature of test [16]: HIV-1 Vif–A3G interaction blockers – biochemical, TR-FRET, GST-Vif 1-94, biotin-A3G peptide, dose response retest, primary screen (AID 1117319).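 Note: TR-FRET signal of purified GST-Vif binding a biotinylated A3G peptide; inhibitors lower the FRET signal by blocking Vif and A3G binding.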 Type of test: functional.
Test [17] can be described thus: fluconazole-exposed Candida albicans growth modulators – fluorescence, retest, confirmation (AID 2467). Type of test: functional, cell-based.
Test [18] in a line: cAMP pathway inhibition in counterscreen cell line – TR-FRET cAMP detection, counter-screen for MC4R biased antagonist project, dose response (AID 602305).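 Note: U2OS cells stimulated with forskolin near its EC80 as the cAMP inducer; potency is for inhibition of forskolin-stimulated cAMP signaling.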 Type of test: functional, cell-based.
The next test addresses Melanocortin receptor 4 (Homo sapiens, UniProt P32245). As to the kind of experiment: inhibitors of MC4R cAMP signaling – cell-based, TR-FRET, biased antagonists, dose response (AID 602298).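 Note: antagonist potency against agonist-stimulated cAMP production.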 Type of test: functional.
The nature of test [19]: NIH-3T3 fibroblast cytotoxicity, dose response, cytotoxicity control, cell-based, fluorescence, Alamar Blue, secondary assay (AID 2327).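 Note: NIH-3T3 mouse fibroblasts cultured with fluconazole at 8 µg/mL.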 Type of test: functional.
The target in a further test is Nonstructural protein 1 (Influenza A virus, UniProt Q194T2). Type of test: functional, Influenza A virus (A/California/07/2009(H1N1)).
The target in the next test is Protein Tat (Human immunodeficiency virus type 1 group M subtype B (isolate HXB2)(HIV-1), UniProt P04608). Type of test: functional.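 Note: tat binding to TAR RNA read out by fluorescence polarization.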
Chain of Protein Tat (P04608 whole entry): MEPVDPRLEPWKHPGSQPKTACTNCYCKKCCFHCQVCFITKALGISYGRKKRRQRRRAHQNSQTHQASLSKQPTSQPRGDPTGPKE
The next test addresses T1, Estrogen receptor (Homo sapiens, UniProt P03372).
T1 sequence (P03372 whole entry): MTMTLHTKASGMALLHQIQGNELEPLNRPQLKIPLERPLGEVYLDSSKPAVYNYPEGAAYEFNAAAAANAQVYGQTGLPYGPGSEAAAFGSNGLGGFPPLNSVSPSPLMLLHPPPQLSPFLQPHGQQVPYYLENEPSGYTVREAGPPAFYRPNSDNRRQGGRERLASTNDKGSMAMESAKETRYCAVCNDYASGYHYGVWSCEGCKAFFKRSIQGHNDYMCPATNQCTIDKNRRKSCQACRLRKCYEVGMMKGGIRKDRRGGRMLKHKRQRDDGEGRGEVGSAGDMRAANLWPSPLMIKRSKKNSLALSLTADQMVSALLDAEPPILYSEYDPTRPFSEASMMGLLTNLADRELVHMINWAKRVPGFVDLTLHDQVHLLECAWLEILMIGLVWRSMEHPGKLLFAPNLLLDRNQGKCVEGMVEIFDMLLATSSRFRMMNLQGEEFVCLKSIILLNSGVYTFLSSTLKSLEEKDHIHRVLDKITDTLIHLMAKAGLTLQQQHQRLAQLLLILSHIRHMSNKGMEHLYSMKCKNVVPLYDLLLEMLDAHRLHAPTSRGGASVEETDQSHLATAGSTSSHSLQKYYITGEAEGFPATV

In test [20] the target is T2, Polyadenylate-binding protein 1 (Homo sapiens, UniProt P11940). The experiment in a line: MLLE domain peptide-binding blockers, IC50 – biochemical, fluorescence polarization, FITC-PAM2 peptide, dose response (AID 602259). Type of test: functional. The following applies: read-out: IC50_Mean.
T2 sequence (P11940 whole entry, the tested form may be a part): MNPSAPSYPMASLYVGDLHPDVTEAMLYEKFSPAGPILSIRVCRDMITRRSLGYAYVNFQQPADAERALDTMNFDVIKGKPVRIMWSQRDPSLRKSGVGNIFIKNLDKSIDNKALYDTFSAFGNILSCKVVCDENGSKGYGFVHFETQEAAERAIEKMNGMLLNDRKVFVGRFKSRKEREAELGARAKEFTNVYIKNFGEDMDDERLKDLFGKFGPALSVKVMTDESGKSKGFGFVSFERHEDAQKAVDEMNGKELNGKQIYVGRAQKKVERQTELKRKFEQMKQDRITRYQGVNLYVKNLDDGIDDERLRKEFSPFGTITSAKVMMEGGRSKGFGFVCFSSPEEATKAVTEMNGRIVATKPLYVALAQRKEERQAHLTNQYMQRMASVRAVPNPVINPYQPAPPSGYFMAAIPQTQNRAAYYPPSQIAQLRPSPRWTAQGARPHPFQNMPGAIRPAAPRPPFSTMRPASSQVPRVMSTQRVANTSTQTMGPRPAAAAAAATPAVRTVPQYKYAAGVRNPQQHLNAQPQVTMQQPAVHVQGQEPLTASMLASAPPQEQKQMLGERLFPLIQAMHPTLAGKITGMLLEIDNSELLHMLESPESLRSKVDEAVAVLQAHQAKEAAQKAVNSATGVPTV
The next test deals with NS3 (Hepatitis C virus, UniProt A3EZJ3). As to the kind of experiment: PubChem AID 2173. Details: species or system Hepacivirus hominis.
For test [21], the target named is T3, RNA-binding protein pos-1 (Caenorhabditis elegans, UniProt G5EF15).
T3 sequence (G5EF15 whole entry): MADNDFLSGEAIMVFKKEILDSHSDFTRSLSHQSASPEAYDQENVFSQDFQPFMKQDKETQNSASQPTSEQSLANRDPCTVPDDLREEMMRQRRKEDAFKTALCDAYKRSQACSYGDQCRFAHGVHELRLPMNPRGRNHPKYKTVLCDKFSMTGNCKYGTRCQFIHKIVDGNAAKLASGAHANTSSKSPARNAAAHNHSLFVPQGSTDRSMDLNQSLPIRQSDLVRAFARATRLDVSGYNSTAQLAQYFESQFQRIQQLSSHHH
As to the kind of experiment: disruptors of C. elegans POS-1 RNA interaction – biochemical, fluorescence polarization, dose response (AID 1964).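 Note: purified POS-1 fused to maltose binding protein made in E. coli; potency of compounds blocking POS-1 binding to fluorescent RNA.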

Test [22] has as its target T2, Polyadenylate-binding protein 1. As to the kind of experiment: MLLE binding blockers, Cy5 peptide tracer – biochemical, fluorescence polarization, Cy5-PAM2 peptide, secondary, miRNA deadenylation inhibitor project, dose response (AID 602260). Type of test: functional. The settings on record: read-out: IC50_Mean.
The target in test [23] is T4, Zinc finger protein mex-5 (Caenorhabditis elegans, UniProt Q9XUB2).
T4 sequence (Q9XUB2 whole entry): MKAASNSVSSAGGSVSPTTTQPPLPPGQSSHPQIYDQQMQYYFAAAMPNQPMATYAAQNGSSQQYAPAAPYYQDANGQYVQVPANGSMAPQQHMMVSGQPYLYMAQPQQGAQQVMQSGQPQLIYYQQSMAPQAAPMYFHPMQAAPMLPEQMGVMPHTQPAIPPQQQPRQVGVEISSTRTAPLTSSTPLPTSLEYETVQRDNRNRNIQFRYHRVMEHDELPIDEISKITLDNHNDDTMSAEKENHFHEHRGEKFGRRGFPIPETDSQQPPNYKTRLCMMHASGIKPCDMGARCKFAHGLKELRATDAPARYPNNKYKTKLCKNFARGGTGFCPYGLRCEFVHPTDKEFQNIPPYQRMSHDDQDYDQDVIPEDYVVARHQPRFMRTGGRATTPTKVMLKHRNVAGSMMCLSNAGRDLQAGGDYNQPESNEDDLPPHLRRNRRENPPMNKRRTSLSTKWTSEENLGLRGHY
The experiment in a line: potency of MEX-5 RNA-binding blockers – biochemical, C. elegans, fluorescence polarization, dose response (AID 1960).

Test [24] can be described thus: toxicity toward immortalized ovarian surface epithelium – cell-based, plate reader, dry powder samples, cytotoxicity control for PAX8 inhibitor project, dose response (AID 743045). Type of test: functional.
A short description of test [25]: general cell-killing toxicity readout – plate reader, dry powder samples, cytotoxicity control for PAX8 inhibitor project, dose response (AID 743021). Type of test: functional, cell-based.
Test [26] is described as follows: OVCAR8 cell viability loss – plate reader, dry powder samples, PAX8 project, dose response (AID 743197). Type of test: functional, cell-based. The settings on record: OVCAR-8.
The next test has as its target Paired box protein Pax-8 (Homo sapiens, UniProt Q06710). The experiment in a line: PAX8 transcriptional activity inhibition in RMG-I – RMG-I cells, luciferase, cherry-pick, dose response (AID 687027).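 Note: luciferase reporter driven by Pax8 target thyroperoxidase promoter measured by SteadyGlo luminescence.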 Type of test: functional, cell-based.
Test [27] can be described thus: OVCAR-3 cell viability loss – plate reader, dry powder samples, PAX8 inhibitor project, dose response (AID 743044). Type of test: functional, cell-based.
A short description of test [28]: A549 lung cell viability reduction – CellTiter-Glo luminescence, cherry-pick, cytotoxicity control, dose response (AID 743484). Type of test: functional, cell-based.
The nature of test [29]: ATP-based viability loss in HEK293T cells – cell-based, CellTiter-Glo luminescence, cherry-picked samples, set 4, cytotoxicity control, dose response (AID 743441). Type of test: functional. The settings on record: HEK293.

Chain of Peroxisome proliferator-activated receptor gamma/Nuclear receptor coactivator 2 (P37231 whole entry): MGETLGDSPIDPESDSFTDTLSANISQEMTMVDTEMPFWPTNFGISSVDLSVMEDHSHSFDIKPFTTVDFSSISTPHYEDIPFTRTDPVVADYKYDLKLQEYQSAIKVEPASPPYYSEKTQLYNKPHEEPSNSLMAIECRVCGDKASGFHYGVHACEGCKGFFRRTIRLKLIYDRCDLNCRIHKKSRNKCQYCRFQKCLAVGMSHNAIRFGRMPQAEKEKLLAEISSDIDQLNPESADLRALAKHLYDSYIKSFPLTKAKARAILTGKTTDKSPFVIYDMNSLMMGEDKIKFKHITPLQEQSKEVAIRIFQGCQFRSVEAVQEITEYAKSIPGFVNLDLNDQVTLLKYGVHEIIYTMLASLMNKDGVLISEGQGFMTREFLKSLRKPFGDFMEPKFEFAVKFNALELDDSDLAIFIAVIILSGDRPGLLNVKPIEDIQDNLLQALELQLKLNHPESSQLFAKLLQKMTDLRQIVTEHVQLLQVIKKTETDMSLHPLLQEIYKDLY
Chain of Peroxisome proliferator-activated receptor gamma/Nuclear receptor coactivator 2 (Q15596 whole entry, further chain): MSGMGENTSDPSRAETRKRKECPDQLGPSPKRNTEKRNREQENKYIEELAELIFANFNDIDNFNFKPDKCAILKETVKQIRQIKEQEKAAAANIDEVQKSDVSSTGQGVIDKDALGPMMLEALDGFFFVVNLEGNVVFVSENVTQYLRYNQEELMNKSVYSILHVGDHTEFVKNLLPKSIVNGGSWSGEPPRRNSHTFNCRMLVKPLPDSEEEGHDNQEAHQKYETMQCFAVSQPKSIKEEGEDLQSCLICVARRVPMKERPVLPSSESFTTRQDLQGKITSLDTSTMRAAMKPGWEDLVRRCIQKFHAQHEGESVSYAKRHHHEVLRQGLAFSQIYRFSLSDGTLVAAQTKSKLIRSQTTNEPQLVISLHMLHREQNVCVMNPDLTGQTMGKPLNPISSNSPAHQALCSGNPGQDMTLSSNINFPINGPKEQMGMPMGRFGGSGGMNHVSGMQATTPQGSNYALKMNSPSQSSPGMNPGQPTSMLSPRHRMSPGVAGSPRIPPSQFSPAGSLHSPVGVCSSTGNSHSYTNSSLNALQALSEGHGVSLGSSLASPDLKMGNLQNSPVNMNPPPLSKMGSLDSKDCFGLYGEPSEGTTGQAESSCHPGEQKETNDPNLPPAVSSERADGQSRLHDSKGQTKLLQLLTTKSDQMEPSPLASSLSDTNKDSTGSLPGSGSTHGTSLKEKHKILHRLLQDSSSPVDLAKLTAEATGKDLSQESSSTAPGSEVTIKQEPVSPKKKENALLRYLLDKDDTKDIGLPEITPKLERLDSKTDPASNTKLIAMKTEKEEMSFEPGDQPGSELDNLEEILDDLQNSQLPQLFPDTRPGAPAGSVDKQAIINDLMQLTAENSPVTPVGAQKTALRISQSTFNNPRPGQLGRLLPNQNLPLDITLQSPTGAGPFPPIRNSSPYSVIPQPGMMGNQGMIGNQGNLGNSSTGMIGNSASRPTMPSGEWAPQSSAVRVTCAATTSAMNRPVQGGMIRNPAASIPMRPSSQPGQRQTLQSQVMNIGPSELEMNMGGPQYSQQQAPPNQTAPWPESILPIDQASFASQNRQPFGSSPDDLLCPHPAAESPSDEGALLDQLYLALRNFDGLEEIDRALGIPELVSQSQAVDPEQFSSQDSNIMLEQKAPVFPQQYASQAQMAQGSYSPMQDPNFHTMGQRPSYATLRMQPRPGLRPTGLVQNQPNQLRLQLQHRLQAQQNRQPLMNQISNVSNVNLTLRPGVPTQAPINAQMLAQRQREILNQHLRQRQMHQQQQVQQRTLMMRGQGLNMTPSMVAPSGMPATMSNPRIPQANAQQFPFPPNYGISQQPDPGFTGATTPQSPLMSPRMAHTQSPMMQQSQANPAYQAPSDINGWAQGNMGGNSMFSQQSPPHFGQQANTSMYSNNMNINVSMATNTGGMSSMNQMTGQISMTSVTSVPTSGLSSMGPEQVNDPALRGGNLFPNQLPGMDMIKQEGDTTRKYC
Chain of Peroxisome proliferator-activated receptor gamma/Nuclear receptor coactivator 1 (P37231 whole entry): as the sequence (P37231 whole entry) above
Chain of Peroxisome proliferator-activated receptor gamma/Nuclear receptor coactivator 1 (Q15788 whole entry, further chain): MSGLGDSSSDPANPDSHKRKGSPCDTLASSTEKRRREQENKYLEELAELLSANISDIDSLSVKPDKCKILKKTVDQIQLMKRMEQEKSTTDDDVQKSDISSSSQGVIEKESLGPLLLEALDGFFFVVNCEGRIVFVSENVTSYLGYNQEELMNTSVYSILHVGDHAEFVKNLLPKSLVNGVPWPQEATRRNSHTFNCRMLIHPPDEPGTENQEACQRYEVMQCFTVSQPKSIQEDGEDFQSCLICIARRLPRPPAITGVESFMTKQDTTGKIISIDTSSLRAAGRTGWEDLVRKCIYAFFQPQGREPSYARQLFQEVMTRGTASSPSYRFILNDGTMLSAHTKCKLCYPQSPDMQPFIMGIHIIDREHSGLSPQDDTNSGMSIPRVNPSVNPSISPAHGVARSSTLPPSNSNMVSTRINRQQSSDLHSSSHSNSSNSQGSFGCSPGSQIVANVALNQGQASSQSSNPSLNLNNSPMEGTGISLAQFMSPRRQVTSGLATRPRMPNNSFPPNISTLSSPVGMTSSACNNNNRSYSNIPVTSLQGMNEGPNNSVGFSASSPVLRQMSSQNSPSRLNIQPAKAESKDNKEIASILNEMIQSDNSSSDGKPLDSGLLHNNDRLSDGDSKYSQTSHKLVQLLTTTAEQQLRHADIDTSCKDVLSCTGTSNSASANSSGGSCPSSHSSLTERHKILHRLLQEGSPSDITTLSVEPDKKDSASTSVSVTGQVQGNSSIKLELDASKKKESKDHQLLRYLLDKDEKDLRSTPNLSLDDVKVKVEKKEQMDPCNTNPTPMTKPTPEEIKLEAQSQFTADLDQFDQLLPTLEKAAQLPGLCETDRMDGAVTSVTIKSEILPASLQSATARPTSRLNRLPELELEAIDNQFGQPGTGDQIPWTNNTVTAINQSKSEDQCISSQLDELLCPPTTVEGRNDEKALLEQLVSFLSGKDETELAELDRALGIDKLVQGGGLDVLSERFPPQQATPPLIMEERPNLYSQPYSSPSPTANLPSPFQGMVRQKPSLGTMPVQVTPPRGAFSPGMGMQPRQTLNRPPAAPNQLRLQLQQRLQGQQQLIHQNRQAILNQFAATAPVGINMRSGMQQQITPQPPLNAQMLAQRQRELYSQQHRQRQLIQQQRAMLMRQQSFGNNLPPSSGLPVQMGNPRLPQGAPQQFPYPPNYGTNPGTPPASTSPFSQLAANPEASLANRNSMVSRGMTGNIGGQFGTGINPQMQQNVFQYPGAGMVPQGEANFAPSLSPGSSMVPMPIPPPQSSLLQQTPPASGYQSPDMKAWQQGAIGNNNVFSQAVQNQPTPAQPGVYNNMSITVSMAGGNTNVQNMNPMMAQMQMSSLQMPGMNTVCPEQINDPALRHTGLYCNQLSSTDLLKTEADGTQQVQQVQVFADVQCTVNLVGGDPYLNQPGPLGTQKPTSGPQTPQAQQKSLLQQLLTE

`COc1ccc(-c2cc3ccccc3oc2=O)cc1NC(=O)c1ccc([N+](=O)[O-])o1`: the values for the concentration for a half-maximal effect (EC50) (in the test “cells”; in test [1]; in test [3]) were 0.262 µM (active), < 0.1 µM (active) and 9.47 µM (active), respectively. Moreover, the CC50 in test [2] is > 40 µM (active). Besides, the AC50 in the test on INS1 was 10.7 µM (active).

`CN1C(=O)/C(=C/c2cn(CC(=O)N3CCCCC3)c3ccccc23)c2ccccc21`: in [4], the IC50 was 46.6 µM (not active). Also, the EC50 in [5] and in test [6] was > 112 µM (not active) throughout.

As to `c1ccc2c(c1)Cn1nc(Cc3nc4c(s3)CCCC4)nc1-2`, the EC50 was 10.3 µM (active) in the test with H4; 7.06 µM (active) in test [7]; > 3.8 µM (not active) in test [8]; > 12 µM (not active) in test [9]; > 12 µM (not active) in test [10]; < 0.1 µM (active) in test [11].

Regarding `COC(=O)c1sc2cc(C(F)(F)F)cnc2c1-c1ccccn1`, in test [12], the IC50 is recorded as > 30 µM (not active).

Consider `S=C(NCc1ccc(Cl)cc1Cl)Nc1ccccc1`, for which the EC50 in [13] is on record as > 79.4 µM (not active); in [14] it was > 79.4 µM (not active); in test [15], 67.3 µM (not active).

For the compound `O=C(CCN1C(=O)c2ccccc2C1=O)Nc1ccc(-c2nc3ccccc3o2)cc1`, the EC50 in [13] is given as 71.6 µM (not active); in [14], 74.4 µM (not active); in [15], > 79.4 µM (not active).

Consider `COC(=O)c1ccc(-n2nnnc2SCC(=O)Nc2cc(OC)ccc2OC)cc1`, for which, in test [16], the IC50 is > 100 µM (active).

In the case of `CCOC(=O)c1cnc2ccc(C)cc2c1Nc1ccc(N2CCOCC2)cc1`, the concentration giving a half-maximal response (EC50) in test [17] is 1.75 µM (active); in test [19], 41.5 µM (active). Moreover, the IC50 in test [18] was > 64.6 µM (inactive); on Melanocortin receptor 4 it was 19 µM (inactive); in test [4], 47.7 µM (not active); on Nonstructural protein 1 it was 30.7 µM (active).

As to `COc1ccc(OC)c(N/C(C)=C/C(=O)c2ccc(C)o2)c1`, the IC50 at Protein Tat was > 100 µM (inconclusive).

Regarding `CCOc1ccc(/C=c2\sc3nc(-c4ccco4)nn3c2=O)cc1OCC`, the IC50 against Estrogen receptor is > 50 µM (not active); in test [20], 48.8 µM (inactive); against NS3 it was 24.7 µM (not active); in test [22], > 66 µM (inactive). For the same compound, the 50% effective concentration (EC50) in test [21] and in test [23] was > 300 µM (not active) throughout.

With `C[C@H](CO)N1C[C@H](C)[C@@H](CN(C)S(=O)(=O)c2ccc(Cl)cc2)OCCCC[C@H](C)Oc2ccc(NS(=O)(=O)c3cccs3)cc2C1=O`, the AC50 was 12.7 µM (active) in [24]; 21.4 µM (active) in [25]; 24.5 µM (active) in [26]; 4.18 µM (active) at Paired box protein Pax-8; 15 µM (active) in test [27].

Regarding `COc1cc2c(cc1[N+](=O)[O-])-c1ccc([N+](=O)[O-])cc1C2`, the AC50 in test [28] was 12.4 µM (active); in [29], 26.7 µM (active).

Take `O=C(Nc1cccnc1)c1cc(-c2cc(Cl)ccc2O)n[nH]1`: the EC50 is 0.608 µM (active) in the test with H4; 6.15 µM (active) in [7]; 0.439 µM (active) in test [8]; 0.56 µM (active) in test [9]; > 12 µM (not active) in test [10].
